According to patent US7108865B2, “Controlled-release dosage forms of azithromycin” (Pfizer Inc, priority 1994, dated 2006):

Settings: pH 7
Text: A third class of azithromycin sustained-release dosage forms includes the osmotic delivery devices or “osmotic pumps” as they are known in the art. Osmotic pumps comprise a core containing an osmotically effective composition surrounded by a semipermeable membrane. The term “semipermeable” in this context means that water can pass through the membrane, but solutes dissolved in water cannot. In use, when placed in an aqueous environment, the device imbibes water due to the osmotic activity of the core composition. […] The osmotically effective composition includes water-soluble species, which generate a colloidal osmotic pressure, and water-swellable polymers.

In the case of `CC[C@H]1OC(=O)[C@H](C)[C@@H](O[C@H]2C[C@@](C)(OC)[C@@H](O)[C@H](C)O2)[C@H](C)[C@@H](O[C@@H]2O[C@H](C)C[C@H](N(C)C)[C@H]2O)[C@](C)(O)C[C@@H](C)CN(C)[C@H](C)[C@@H](O)[C@]1(C)O` [azithromycin dihydrate], the solubility is reported as “much lower”.
In the case of Azithromycin fumarate, the “osmotic pressure corresponding to the solubility” value is reported as “about 3 atmospheres” and the solubility is reported as “about 100 mg/ml”.
